Measured values: paper PMC7574383 (Epigenetics, 2020)

How the values were obtained:
H9c2 cells = test: Senescence-associated β-galactosidase assay, H9c2; type: cell-based, rat; conditions: H9c2, DOXO 0.5 μM, 48 h
HepG2 cells = test: Senescence-associated β-galactosidase assay, HepG2; type: cell-based, human; conditions: HepG2, DOXO 0.5 μM, 48 h
Caco-2 cell monolayer = test: Caco-2 permeability assay; type: in vitro ADME, human; conditions: Caco-2 monolayer, compounds at 100 μg/ml, after three hours of treatment

Structure (SMILES)	SA β-gal-positive cells induced (H9c2 cells) [%]	SA β-gal-positive cells induced (HepG2 cells)	Permeability (%) (Caco-2 cell monolayer)
COc1cccc2c1C(=O)c1c(O)c3c(c(O)c1C2=O)C[C@@](O)(C(=O)CO)C[C@@H]3O[C@H]1C[C@H](N)[C@H](O)[C@H](C)O1 [DOXO, doxorubicin]	~35	about 60%	–
CC(C)NCC(O)COc1cccc2ccccc12 (stereo not drawn) [Propranolol]	–	–	82.4
